# Test results reported in paper PMC9501633, “Synthesis, Characterisation and Mechanism of Action of Anticancer 3-Fluoroazetidin-2-ones” (Pharmaceuticals, 2022).
# Several values for one entry are separate records, joined by “and”; a condition that tells them apart may be missing. Identical values can stand only once. Like-named read-outs stand apart in the source and are kept apart here.
# How the values were obtained:
# CCRF-CEM = test: NCI 60 cell line screen, Leukaemia; format: cell-based, human
# HL-60(TB) = test: NCI 60 cell line screen, Leukaemia; format: cell-based, human
# MOLT-4 = test: NCI 60 cell line screen, Leukaemia; format: cell-based, human
# RPMI-8226 = test: NCI 60 cell line screen, Leukaemia; format: cell-based, human
# SR = test: NCI 60 cell line screen, Leukaemia; format: cell-based, human
# HOP-62 = test: NCI 60 cell line screen, NSCLung; format: cell-based, human
# NCI-H226 = test: NCI 60 cell line screen, NSCLung; format: cell-based, human
# NCI-H23 = test: NCI 60 cell line screen, NSCLung; format: cell-based, human
# NCI-H460 = test: NCI 60 cell line screen, NSCLung; format: cell-based, human
# COLO 205 = test: NCI 60 cell line screen, Colon; format: cell-based, human
# HCT-116 = test: NCI 60 cell line screen, Colon; format: cell-based, human
# HCT-15 = test: NCI 60 cell line screen, Colon; format: cell-based, human
# HT29 = test: NCI 60 cell line screen, Colon; format: cell-based, human
# SW-620 = test: NCI 60 cell line screen, Colon; format: cell-based, human
# SF-268 = test: NCI 60 cell line screen, CNS; format: cell-based, human
# SF-295 = test: NCI 60 cell line screen, CNS; format: cell-based, human
# SF-539 = test: NCI 60 cell line screen, CNS; format: cell-based, human
# SNB-19 = test: NCI 60 cell line screen, CNS; format: cell-based, human
# U251 = test: NCI 60 cell line screen, CNS; format: cell-based, human
# MALME-3M = test: NCI 60 cell line screen, Melanoma; format: cell-based, human
# MDA-MB-435 = test: NCI 60 cell line screen, Melanoma; format: cell-based, human
# UACC-62 = test: NCI 60 cell line screen, Melanoma; format: cell-based, human
# IGROV1 = test: NCI 60 cell line screen, Ovarian; format: cell-based, human
# RXF 393 = test: NCI 60 cell line screen, Renal; format: cell-based, human
# SN12C = test: NCI 60 cell line screen, Renal; format: cell-based, human
# UO-31 = test: NCI 60 cell line screen, Renal; format: cell-based, human
# PC-3 = test: NCI 60 cell line screen, Prostate; format: cell-based, human
# MCF7 = test: NCI 60 cell line screen, Breast; format: cell-based, human
# BT-549 = test: NCI 60 cell line screen, Breast; format: cell-based, human
# T-47D = test: NCI 60 cell line screen, Breast; format: cell-based, human
# MDA-MB-468 = test: NCI 60 cell line screen, Breast; format: cell-based, human
# NCI 60 cell line panel = test: NCI 60 cell line screen, whole panel; format: cell-based; conditions: for GI50: read-out: MG-MID GI50
# Description: The antiproliferative effects of selected compounds 33, 37 and 43 were initially evaluated in the NCI 60 cell line screen at 10 μM concentration (see Supplementary Materials Table S3). […] . […] .
# Compound 33 was next selected for evaluation in the NCI 60 cell line five-dose screen. The GI50 (50% growth inhibition), TGI (total growth inhibition) and LC50 (50% lethal concentration) were determined in the NCI panel of 60 cell lines, using the sulphorhodamine B (SRB) protein assay (Table 5). The GI50 value provides the growth inhibition of the selected compound, while the cytotoxic effect is evaluated in the LC50 value. […] . […] . Glioblastoma is an aggressive and fast-growing brain tumour with a median survival time of 9–16 months from diagnosis, and these tumours quickly evolve resistance to temozolomide chemotherapy, which is the only FDA-approved treatment. […] . Further mechanistic and cellular studies were carried out and are described below.
# aData obtained from NCI in vitro human tumour cell screen 1 dose assay (10 µM). 33 (NCI
# [1] = 5-dose assay, 48 h, mean-graph midpoint
compound,measurement,setting,value
"COc1ccc(C2C(F)C(=O)N2c2cc(OC)c(OC)c(OC)c2)cc1F (stereo not drawn) [Compound 33, 3-Fluoro-4-(3-fluoro-4-methoxyphenyl)-1-(3,4,5-trimethoxyphenyl)azetidin-2-one]",TGI,"CCRF-CEM; 5-dose, 48 h",>100000 nM
same,GI50,"CCRF-CEM; Homo sapiens, 5-dose, 48 h",47.1 nM
same,inhibition at 10 µM,"CCRF-CEM; Homo sapiens, one dose 10 µM",86.8%
same,Growth %,CCRF-CEM; one dose 10 µM,13.16%
same,TGI,"HL-60(TB); 5-dose, 48 h",399 nM
same,GI50,"HL-60(TB); Homo sapiens, 5-dose, 48 h",80.5 nM
same,inhibition at 10 µM,"HL-60(TB); Homo sapiens, one dose 10 µM",115%
same,Growth %,HL-60(TB); one dose 10 µM,-14.69%
same,TGI,"MOLT-4; 5-dose, 48 h",93400 nM
same,GI50,"MOLT-4; Homo sapiens, 5-dose, 48 h",146 nM
same,inhibition at 10 µM,"MOLT-4; Homo sapiens, one dose 10 µM",80.3%
same,Growth %,MOLT-4; one dose 10 µM,19.7%
same,TGI,"RPMI-8226; 5-dose, 48 h",37300 nM
same,GI50,"RPMI-8226; Homo sapiens, 5-dose, 48 h",55 nM
same,inhibition at 10 µM,"RPMI-8226; Homo sapiens, one dose 10 µM",84.7%
same,Growth %,RPMI-8226; one dose 10 µM,15.32%
same,TGI,"SR; 5-dose, 48 h",>100000 nM
same,GI50,"SR; Homo sapiens, 5-dose, 48 h",40.8 nM
same,inhibition at 10 µM,"SR; Homo sapiens, one dose 10 µM",86.7%
same,Growth %,SR; one dose 10 µM,13.28%
same,TGI,"HOP-62; 5-dose, 48 h",>100000 nM
same,GI50,"HOP-62; Homo sapiens, 5-dose, 48 h",511 nM
same,inhibition at 10 µM,"HOP-62; Homo sapiens, one dose 10 µM",68.2%
same,Growth %,HOP-62; one dose 10 µM,31.85%
same,TGI,"NCI-H226; 5-dose, 48 h",>100000 nM
same,GI50,"NCI-H226; Homo sapiens, 5-dose, 48 h",22200 nM
same,inhibition at 10 µM,"NCI-H226; Homo sapiens, one dose 10 µM",41%
same,Growth %,NCI-H226; one dose 10 µM,58.99%
same,TGI,"NCI-H23; 5-dose, 48 h",>100000 nM
same,GI50,"NCI-H23; Homo sapiens, 5-dose, 48 h",273 nM
same,inhibition at 10 µM,"NCI-H23; Homo sapiens, one dose 10 µM",78.7%
same,Growth %,NCI-H23; one dose 10 µM,21.3%
same,TGI,"NCI-H460; 5-dose, 48 h",91100 nM
same,GI50,"NCI-H460; Homo sapiens, 5-dose, 48 h",356 nM
same,inhibition at 10 µM,"NCI-H460; Homo sapiens, one dose 10 µM",92.9%
same,Growth %,NCI-H460; one dose 10 µM,7.06%
same,TGI,"COLO 205; 5-dose, 48 h",503 nM
same,GI50,"COLO 205; Homo sapiens, 5-dose, 48 h",156 nM
same,CC50,"COLO 205; Homo sapiens, 5-dose, 48 h, read-out: LC50 (the source's name)",8230 nM
same,inhibition at 10 µM,"COLO 205; Homo sapiens, one dose 10 µM",168%
same,Growth %,COLO 205; one dose 10 µM,-68%
same,TGI,"HCT-116; 5-dose, 48 h",>100000 nM
same,GI50,"HCT-116; Homo sapiens, 5-dose, 48 h",32.5 nM
same,inhibition at 10 µM,"HCT-116; Homo sapiens, one dose 10 µM",94.4%
same,Growth %,HCT-116; one dose 10 µM,5.59%
same,TGI,"HCT-15; 5-dose, 48 h",>100000 nM
same,GI50,"HCT-15; Homo sapiens, 5-dose, 48 h",66.4 nM
same,inhibition at 10 µM,"HCT-15; Homo sapiens, one dose 10 µM",86.4%
same,Growth %,HCT-15; one dose 10 µM,13.63%
same,TGI,"HT29; 5-dose, 48 h",>100000 nM
same,GI50,"HT29; Homo sapiens, HT-29, 5-dose, 48 h",134 nM
same,inhibition at 10 µM,"HT29; Homo sapiens, HT-29, one dose 10 µM",96.3%
same,Growth %,HT29; one dose 10 µM,3.73%
same,TGI,"SW-620; 5-dose, 48 h",>100000 nM
same,GI50,"SW-620; Homo sapiens, 5-dose, 48 h",56.2 nM
same,inhibition at 10 µM,"SW-620; Homo sapiens, one dose 10 µM",71.3%
same,Growth %,SW-620; one dose 10 µM,28.73%
same,TGI,"SF-268; 5-dose, 48 h",>100000 nM
same,GI50,"SF-268; Homo sapiens, 5-dose, 48 h",324 nM
same,inhibition at 10 µM,"SF-268; Homo sapiens, one dose 10 µM",66.9%
same,Growth %,SF-268; one dose 10 µM,33.13%
same,TGI,"SF-295; 5-dose, 48 h",>100000 nM
same,GI50,"SF-295; Homo sapiens, 5-dose, 48 h",53.5 nM
same,inhibition at 10 µM,"SF-295; Homo sapiens, one dose 10 µM",81.4%
same,Growth %,SF-295; one dose 10 µM,18.61%
same,TGI,"SF-539; 5-dose, 48 h",217 nM
same,GI50,"SF-539; Homo sapiens, 5-dose, 48 h",28 nM
same,inhibition at 10 µM,"SF-539; Homo sapiens, one dose 10 µM",95.8%
same,Growth %,SF-539; one dose 10 µM,4.17%
same,TGI,"SNB-19; 5-dose, 48 h",>100000 nM
same,GI50,"SNB-19; Homo sapiens, 5-dose, 48 h",302 nM
same,inhibition at 10 µM,"SNB-19; Homo sapiens, one dose 10 µM",66%
same,Growth %,SNB-19; one dose 10 µM,34.05%
same,TGI,"U251; 5-dose, 48 h",>100000 nM
same,GI50,"U251; Homo sapiens, U-251, 5-dose, 48 h",23.6 nM
same,inhibition at 10 µM,"U251; Homo sapiens, U-251, one dose 10 µM",88.1%
same,Growth %,U251; one dose 10 µM,11.86%
same,TGI,"MALME-3M; 5-dose, 48 h",>100000 nM
same,inhibition at 10 µM,"MALME-3M; Homo sapiens, one dose 10 µM",26%
same,Growth %,MALME-3M; one dose 10 µM,74.02%
same,GI50,"MDA-MB-435; Homo sapiens, 5-dose, 48 h",29.1 nM
same,inhibition at 10 µM,"MDA-MB-435; Homo sapiens, one dose 10 µM",99.7%
same,Growth %,MDA-MB-435; one dose 10 µM,0.35%
same,TGI,"UACC-62; 5-dose, 48 h",>100000 nM
same,inhibition at 10 µM,"UACC-62; Homo sapiens, one dose 10 µM",46.5%
same,Growth %,UACC-62; one dose 10 µM,53.45%
same,TGI,"IGROV1; 5-dose, 48 h",>100000 nM
same,GI50,"IGROV1; Homo sapiens, IGROV-1, 5-dose, 48 h",94.6 nM
same,inhibition at 10 µM,"IGROV1; Homo sapiens, IGROV-1, one dose 10 µM",68.1%
same,Growth %,IGROV1; one dose 10 µM,31.88%
same,GI50,"RXF 393; 5-dose, 48 h",39.8 nM
same,TGI,"RXF 393; 5-dose, 48 h",60000 nM
same,GI50,"RXF 393; Homo sapiens, RXF 393, 48 h, 5-dose, 48 h",39 nM
same,inhibition at 10 µM,"RXF 393; Homo sapiens, one dose 10 µM",71.2%
same,Growth %,RXF 393; one dose 10 µM,28.8%
same,TGI,"SN12C; 5-dose, 48 h",>100000 nM
same,GI50,"SN12C; Homo sapiens, 5-dose, 48 h",482 nM
same,inhibition at 10 µM,"SN12C; Homo sapiens, one dose 10 µM",66.7%
same,Growth %,SN12C; one dose 10 µM,33.29%
same,TGI,"UO-31; 5-dose, 48 h",>100000 nM
same,GI50,"UO-31; Homo sapiens, 5-dose, 48 h",171 nM
same,inhibition at 10 µM,"UO-31; Homo sapiens, one dose 10 µM",56.8%
same,Growth %,UO-31; one dose 10 µM,43.2%
same,TGI,"PC-3; 5-dose, 48 h",>100000 nM
same,GI50,"PC-3; Homo sapiens, 5-dose, 48 h",42 nM
same,inhibition at 10 µM,"PC-3; Homo sapiens, one dose 10 µM",76.9%
same,Growth %,PC-3; one dose 10 µM,23.13%
same,inhibition at 10 µM,"MCF7; Homo sapiens, MCF7, MCF7, one dose 10 µM",87.2%
same,GI50,"MCF7; Homo sapiens, MCF7, 5-dose, 48 h",36.4 nM
same,TGI,"MCF7; MCF7, 5-dose, 48 h",>100000 nM
same,Growth %,"MCF7; MCF7, one dose 10 µM",12.83%
same,Inhibition %,"MCF7; MCF7, one dose 10 µM",87.2%
same,TGI,"BT-549; 5-dose, 48 h",33800 nM
same,GI50,"BT-549; Homo sapiens, 5-dose, 48 h",49.8 nM
same,inhibition at 10 µM,"BT-549; Homo sapiens, one dose 10 µM",84.7%
same,Growth %,BT-549; one dose 10 µM,15.26%
same,TGI,"T-47D; 5-dose, 48 h",>100000 nM
same,inhibition at 10 µM,"T-47D; Homo sapiens, T47D, one dose 10 µM",25.1%
same,Growth %,T-47D; one dose 10 µM,74.94%
same,GI50,"MDA-MB-468; Homo sapiens, 5-dose, 48 h",106 nM
same,inhibition at 10 µM,"MDA-MB-468; Homo sapiens, one dose 10 µM",77%
same,Growth %,MDA-MB-468; one dose 10 µM,23%
same,MG-MID TGI,NCI 60 cell line panel; [1],52480 nM and 52400 nM
same,GI50,NCI 60 cell line panel; [1],223 nM
same,GI50,"NCI 60 cell line panel; Homo sapiens, 60 cell, 48 h, 5-dose assay, 48 h, mean-graph midpoint",224 nM
same,inhibition at 10 µM,"NCI 60 cell line panel; Homo sapiens, 60 cell, one dose 10 μM, mean over the 60 cell lines, read-out: mean growth inhibition",76.3%
same,CC50,"NCI 60 cell line panel; Homo sapiens, 60 cell, 5-dose assay, 48 h, mean-graph midpoint, read-out: MG-MID LC50",95500 nM
same,CC50,"NCI 60 cell line panel; Homo sapiens, all cell lines except COLO 205 and SK-MEL-5, 5-dose, 48 h, read-out: LC50 (the source's name)",> 100000 nM
same,mean Growth %,"NCI 60 cell line panel; one dose 10 µM, mean over the cell lines",23.66%
